Experimental data taken from the supplement of paper PMC10307832.

Assays:
Experiment in all cases: relative viability (nuclei count vs DMSO), 5 days (fraction); higher = more cells survive
NCI-H1355 = system: NCI-H1355
Procedure, shortened: (§1)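 The day after seeding in 1536-well plates, lung cancer cell lines were treated by pin tool with a single drug, or with a fixed anchor-drug dose together with five library-drug doses (not always all listed) in √10 steps. After 5 days, a combined fix-and-stain solution (final 0.05% Triton X-100, 1% formaldehyde, 1 ug/ml Hoechst) was added. Nuclei counted on 4× images gave relative viability as treated counts over vehicle counts, reported as the median of duplicate plates.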

NCI-H2342 = system: NCI-H2342
Procedure, shortened: as §1

H3255 = system: H3255
Procedure, shortened: as §1

NCI-H1975 = system: NCI-H1975
Procedure, shortened: as §1

EPLC-272H = system: EPLC-272H
Procedure, shortened: as §1

NCI-H322M = system: NCI-H322M
Procedure, shortened: as §1

NCI-H460 = system: NCI-H460
Procedure, shortened: as §1

NCI-H2087 = system: NCI-H2087
Procedure, shortened: as §1

EKVX = system: EKVX
Procedure, shortened: as §1

NCI-H2009 = system: NCI-H2009
Procedure, shortened: as §1

SK-MES-1 = system: SK-MES-1
Procedure, shortened: as §1

NCI-H1792 = system: NCI-H1792
Procedure, shortened: as §1

COR-L 105 = system: COR-L 105
Procedure, shortened: as §1

HCC-827 = system: HCC-827
Procedure, shortened: as §1

CAL-12T = system: CAL-12T
Procedure, shortened: as §1

NCI-H441 = system: NCI-H441
Procedure, shortened: as §1

NCI-H2085 = system: NCI-H2085
Procedure, shortened: as §1

ABC-1 = system: ABC-1
Procedure, shortened: as §1

NCI-H2228 = system: NCI-H2228
Procedure, shortened: as §1

NCI-H1993 = system: NCI-H1993
Procedure, shortened: as §1

ChaGo-K-1 = system: ChaGo-K-1
Procedure, shortened: as §1

Structure (SMILES): Cc1csc(=NC2CCCCC2)n1/N=C/c1ccc(O)c(O)c1O [MIM1] + CCNC(=O)c1noc(-c2cc(C(C)C)c(O)cc2O)c1-c1ccc(CN2CCOCC2)cc1 [Luminespib] (partner 0.01 µM)
- relative viability (NCI-H1355; first compound 0.2 µM): 0.698
- relative viability (NCI-H1355; first compound 0.6325 µM): 0.591
- relative viability (NCI-H1355; first compound 2 µM): 0.726
- relative viability (NCI-H1355; first compound 6.325 µM): 0.659
- relative viability (NCI-H1355; first compound 20 µM): 0.391
- relative viability (NCI-H2342; first compound 0.2 µM): 0.739
- relative viability (NCI-H2342; first compound 0.6325 µM): 0.723
- relative viability (NCI-H2342; first compound 2 µM): 0.642
- relative viability (NCI-H2342; first compound 6.325 µM): 0.624
- relative viability (NCI-H2342; first compound 20 µM): 0.985
- relative viability (H3255; first compound 0.2 µM): 0.865
- relative viability (H3255; first compound 0.6325 µM): 0.85
- relative viability (H3255; first compound 2 µM): 0.798
- relative viability (H3255; first compound 6.325 µM): 0.769
- relative viability (H3255; first compound 20 µM): 0.34
- relative viability (NCI-H1975; first compound 0.2 µM): 0.202
- relative viability (NCI-H1975; first compound 0.6325 µM): 0.261
- relative viability (NCI-H1975; first compound 2 µM): 0.193
- relative viability (NCI-H1975; first compound 6.325 µM): 0.279
- relative viability (NCI-H1975; first compound 20 µM): 0.136
- relative viability (EPLC-272H; first compound 0.2 µM): 0.491
- relative viability (EPLC-272H; first compound 0.6325 µM): 0.266
- relative viability (EPLC-272H; first compound 2 µM): 0.205
- relative viability (EPLC-272H; first compound 6.325 µM): 0.143
- relative viability (EPLC-272H; first compound 20 µM): 0.122
- relative viability (NCI-H322M; first compound 0.2 µM): 0.837
- relative viability (NCI-H322M; first compound 0.6325 µM): 0.771
- relative viability (NCI-H322M; first compound 2 µM): 0.832
- relative viability (NCI-H322M; first compound 6.325 µM): 0.729
- relative viability (NCI-H322M; first compound 20 µM): 0.31
- relative viability (NCI-H460; first compound 0.2 µM): 0.0272
- relative viability (NCI-H460; first compound 0.6325 µM): 0.0322
- relative viability (NCI-H460; first compound 2 µM): 0.0432
- relative viability (NCI-H460; first compound 6.325 µM): 0.0284
- relative viability (NCI-H460; first compound 20 µM): 0.0278
- relative viability (NCI-H2087; first compound 0.2 µM): 0.145
- relative viability (NCI-H2087; first compound 0.6325 µM): 0.183
- relative viability (NCI-H2087; first compound 2 µM): 0.199
- relative viability (NCI-H2087; first compound 6.325 µM): 0.176
- relative viability (NCI-H2087; first compound 20 µM): 0.132
- relative viability (EKVX; first compound 0.2 µM): 0.863
- relative viability (EKVX; first compound 0.6325 µM): 0.766
- relative viability (EKVX; first compound 2 µM): 0.832
- relative viability (EKVX; first compound 6.325 µM): 0.701
- relative viability (EKVX; first compound 20 µM): 0.617
- relative viability (NCI-H2009; first compound 0.2 µM): 1
- relative viability (NCI-H2009; first compound 0.6325 µM): 1.06
- relative viability (NCI-H2009; first compound 2 µM): 1.03
- relative viability (NCI-H2009; first compound 6.325 µM): 0.877
- relative viability (NCI-H2009; first compound 20 µM): 1.02
- relative viability (SK-MES-1; first compound 0.2 µM): 0.754
- relative viability (SK-MES-1; first compound 0.6325 µM): 0.828
- relative viability (SK-MES-1; first compound 2 µM): 0.708
- relative viability (SK-MES-1; first compound 6.325 µM): 0.55
- relative viability (SK-MES-1; first compound 20 µM): 0.215
- relative viability (NCI-H1792; first compound 0.2 µM): 0.449
- relative viability (NCI-H1792; first compound 0.6325 µM): 0.43
- relative viability (NCI-H1792; first compound 2 µM): 0.5
- relative viability (NCI-H1792; first compound 6.325 µM): 0.398
- relative viability (NCI-H1792; first compound 20 µM): 0.396
- relative viability (COR-L 105; first compound 0.2 µM): 0.721
- relative viability (COR-L 105; first compound 0.6325 µM): 0.918
- relative viability (COR-L 105; first compound 2 µM): 0.813
- relative viability (COR-L 105; first compound 6.325 µM): 0.642
- relative viability (COR-L 105; first compound 20 µM): 0.801
- relative viability (HCC-827; first compound 0.2 µM): 0.517
- relative viability (HCC-827; first compound 0.6325 µM): 0.384
- relative viability (HCC-827; first compound 2 µM): 0.698
- relative viability (HCC-827; first compound 6.325 µM): 0.371
- relative viability (HCC-827; first compound 20 µM): 0.184
- relative viability (CAL-12T; first compound 0.2 µM): 0.29
- relative viability (CAL-12T; first compound 0.6325 µM): 0.542
- relative viability (CAL-12T; first compound 2 µM): 0.522
- relative viability (CAL-12T; first compound 6.325 µM): 0.281
- relative viability (CAL-12T; first compound 20 µM): 0.328
- relative viability (NCI-H441; first compound 0.2 µM): 0.253
- relative viability (NCI-H441; first compound 2 µM): 0.327
- relative viability (NCI-H441; first compound 6.325 µM): 0.354
- relative viability (NCI-H441; first compound 20 µM): 0.191
- relative viability (NCI-H2085; first compound 0.2 µM): 0.42
- relative viability (NCI-H2085; first compound 0.6325 µM): 0.466
- relative viability (NCI-H2085; first compound 2 µM): 0.455
- relative viability (NCI-H2085; first compound 6.325 µM): 0.442
- relative viability (NCI-H2085; first compound 20 µM): 0.404
- relative viability (ABC-1; first compound 0.2 µM): 0.499
- relative viability (ABC-1; first compound 0.6325 µM): 0.835
- relative viability (ABC-1; first compound 2 µM): 0.497
- relative viability (ABC-1; first compound 6.325 µM): 0.399
- relative viability (ABC-1; first compound 20 µM): 0.315
- relative viability (NCI-H2228; first compound 0.2 µM): 0.18
- relative viability (NCI-H2228; first compound 0.6325 µM): 0.155
- relative viability (NCI-H2228; first compound 2 µM): 0.181
- relative viability (NCI-H2228; first compound 6.325 µM): 0.151
- relative viability (NCI-H2228; first compound 20 µM): 0.111
- relative viability (NCI-H1993; first compound 0.2 µM): 0.441
- relative viability (NCI-H1993; first compound 0.6325 µM): 0.663
- relative viability (NCI-H1993; first compound 2 µM): 0.652
- relative viability (NCI-H1993; first compound 6.325 µM): 0.633
- relative viability (NCI-H1993; first compound 20 µM): 0.499
- relative viability (ChaGo-K-1; first compound 0.2 µM): 0.559
- relative viability (ChaGo-K-1; first compound 0.6325 µM): 0.735
- relative viability (ChaGo-K-1; first compound 2 µM): 0.473
- relative viability (ChaGo-K-1; first compound 6.325 µM): 0.323
- relative viability (ChaGo-K-1; first compound 20 µM): 0.158
